Reference: patent US9586931B2 (Merck Sharp & Dohme Corp., priority 2012, dated 2017)

Target: T1, recombinant human GST-Syk (Homo sapiens, UniProt P43405)
T1 construct: purchased Carna Biosciences 08-176
Assay: Homogeneous Time-Resolved Fluorescence (HTRF) assay for the recombinant human Syk enzyme
Assay type: biochemical
Conditions: recombinant human GST-Syk 5 pM, ATP 25 μM, 10-dose titration 10 μM to 0.508 nM; read-out: rhSYK Activity IC50
Protocol: Syk inhibition may be determined using the following assay protocol:
Homogeneous Time-Resolved Fluorescence (HTRF) assay for the recombinant human Syk enzyme: A recombinant GST-hSyk fusion protein was used to measure potency of compounds to inhibit human Syk activity. […] Final volume of the reaction was 10 μL. Phosphorylation of the peptide was allowed to proceed for 45 minutes at room temperature. To quench the reaction and detect the phosphorylated product, 2 nM of a Europium-anti-phosphotyrosine antibody (Perkin Elmer #AD0161) and 70 nM SA-APC (Perkin-Elmer #CR130-100) were added together in 15 mM Tris pH 7.5, 40 mM EDTA, 0.01% tween 20. Final volume of the quenching solution was 10 μL. The resulting HTRF signal was measured after 30 minutes on an EnVision (Perkin-Elmer) reader using a time-resolved fluorescence protocol.

| Compound | IC50 |
| --- | --- |
| Cc1cc(Nc2cc(C(F)(F)F)ccn2)nc(-c2cn([C@H](C)C(=O)NCC(=O)O)nn2)c1 [Example 3.14, N-{(2R)-2-[4-(4-methyl-6-{[4-(trifluoromethyl)pyridin-2-yl]amino}pyridin-2-yl)-1H-1,2,3-triazol-1-yl]propanoyl}glycine] | 9.6 nM |
| Cc1cc(Nc2cc(C(F)(F)F)ccn2)nc(-c2cn(C(C)C(=O)NCC(c3ccc(C(F)(F)F)cc3)N3CCOCC3)nn2)c1 (centres unmarked) [Example 1.52, 2-[4-(4-methyl-6-{[4-(trifluoromethyl)pyridin-2-yl]amino}pyridin-2-yl)-1H-1,2,3-triazol-1-yl]-N-{2-morpholin-4-yl-2-[4-(trifluoromethyl)phenyl]ethyl}propanamide] | 435 nM |
| Cc1cc(Nc2cc(C(F)(F)F)ccn2)nc(-c2cn(C3CCCCC3O)nn2)c1 (racemic) [Example 5.89, 2-[4-(4-methyl-6-{[4-(trifluoromethyl)pyridin-2-yl]amino}pyridin-2-yl)-1H-1,2,3-triazol-1-yl]cyclohexanol] | 4 nM |
| Cc1cc(Nc2nccc(OC(C)C)n2)cc(-c2cn(CC(C)(O)C(C)(C)O)nn2)c1 (centres unmarked) [Example 21.31, 2,3-dimethyl-1-[4-(3-methyl-5-{[4-(1-methylethoxy)pyrimidin-2-yl]amino}phenyl)-1H-1,2,3-triazol-1-yl]butane-2,3-diol] | 21.1 nM |
| Cc1cc(Nc2cc(C(F)F)ccn2)nc(-c2cn(C(C)C(C)(O)CO)nn2)c1 (single isomer, unassigned) [Example 30.6, 3-[4-(6-{[4-(difluoromethyl)pyridin-2-yl]amino}-4-methylpyridin-2-yl)-1H-1,2,3-triazol-1-yl]-2-methylbutane-1,2-diol] | 6.5 nM |
| Cc1cc(Nc2nccc(C(F)F)n2)cc(-c2cn(CC3=CCC(=O)N=C3)nn2)c1 [Example 7.16, 5-((4-(3-((4-(difluoromethyl)pyrimidin-2-yl)amino)-5-methylphenyl)-1H-1,2,3-triazol-1-yl)methyl)pyridin-2(3H)-one] | 2.3 nM |
| Cc1cc(Nc2cc(C(F)(F)F)ccn2)nc(-c2cn(C3CCCCC(O)C3O)nn2)c1 (single isomer, unassigned) [Example 10.4, 3-[4-(4-methyl-6-{[4-(trifluoromethyl)pyridin-2-yl]amino}pyridin-2-yl)-1H-1,2,3-triazol-1-yl]cycloheptane-1,2-diol] | 3.3 nM |
| Cc1cc(Nc2nccc(C(F)F)n2)cc(-c2cn(CC(C)(O)CO)nn2)c1 (single isomer, unassigned) [Example 21.7, 3-[4-(3-{[4-(difluoromethyl)pyrimidin-2-yl]amino}-5-methylphenyl)-1H-1,2,3-triazol-1-yl]-2-methylpropane-1,2-diol] | 7.2 nM |
| 4-{1-[4-(6-{[4-(cyclohexyloxy)pyridin-2-yl]amino}-4-methylpyridin-2-yl)-1H-1,2,3-triazol-1-yl]ethyl}benzoic acid [Example 2.7] | 16.7 nM |
| Cc1cc(Nc2cc(C(F)(F)F)ccn2)nc(-c2cn(CC(O)CO)nn2)c1 (racemic) [Example 5.95, 3-[4-(4-methyl-6-{[4-(trifluoromethyl)pyridin-2-yl]amino}pyridin-2-yl)-1H-1,2,3-triazol-1-yl]propane-1,2-diol] | 7.9 nM |
| Cc1cc(Nc2nccc(C(F)(F)F)n2)cc(-c2cn(C[C@H](O)CO)nn2)c1 [Example 5.24, (2S)-3-[4-(3-methyl-5-{[4-(trifluoromethyl)pyrimidin-2-yl]amino}phenyl)-1H-1,2,3-triazol-1-yl]propane-1,2-diol] | 24.6 nM |
| Cc1cc(Nc2nccc(C(F)(F)F)n2)cc(-n2cc([C@]3(O)CC[C@H](C(=O)OC(C)(C)C)CC3)nn2)c1 [Example 15.5, tert-butyl trans-4-hydroxy-4-[1-(3-methyl-5-{[4-(trifluoromethyl)pyrimidin-2-yl]amino}phenyl)-1H-1,2,3-triazol-4-yl]cyclohexanecarboxylate] | 2390 nM |
| Cc1cc(Nc2nccc(C(F)(F)F)n2)cc(-c2cn(CC(=O)N3[C@H](C)COC[C@@H]3C)nn2)c1 [Example 5.65, N-[3-(1-{2-[(cis)-3,5-dimethylmorpholin-4-yl]-2-oxoethyl}-1H-1,2,3-triazol-4-yl)-5-methylphenyl]-4-(trifluoromethyl)pyrimidin-2-amine] | 122 nM |
| COCC(O)Cn1cc(-c2cc(C)cc(Nc3nccc(C(F)(F)F)n3)c2)nn1 (racemic) [Example 5.53, 1-methoxy-3-[4-(3-methyl-5-{[4-(trifluoromethyl)pyrimidin-2-yl]amino}phenyl)-1H-1,2,3-triazol-1-yl]propan-2-ol] | 58.6 nM |
| Cc1cc(Nc2nccc(C(F)(F)F)n2)cc(-n2cc(C3(O)CCC4(CC3)OCCO4)nn2)c1 [Example 15, 8-[1-(3-Methyl-5-{[4-(trifluoromethyl)pyrimidin-2-yl]amino}phenyl)-1H-1,2,3-triazol-4-yl]-1,4-dioxaspiro[4.5]decan-8-ol] | 94.7 nM |
| Cc1cc(Nc2nccc(C(F)(F)F)n2)cc(-c2cn(CCC(N)=O)nn2)c1 [Example 5.75, 3-[4-(3-methyl-5-{[4-(trifluoromethyl)pyrimidin-2-yl]amino}phenyl)-1H-1,2,3-triazol-1-yl]propanamide] | 31.6 nM |
| Cc1cc(Nc2nccc(C(F)F)n2)cc(-c2cn(Cc3ccc(=O)[nH]c3)nn2)c1 [Example 33, 5-((4-(3-((4-(Difluoromethyl)pyrimidin-2-yl)amino)-5-methylphenyl)-1H-1,2,3-triazol-1-yl)methyl)pyridin-2(3H)-one] | 3.7 nM |
| Cc1cc(Nc2nccc(C(F)(F)F)n2)cc(-n2cc([C@]3(O)CC[C@H](C(=O)O)CC3)nn2)c1 [Example 15.3, trans-4-hydroxy-4-[1-(3-methyl-5-{[4-(trifluoromethyl)pyrimidin-2-yl]amino}phenyl)-1H-1,2,3-triazol-4-yl]cyclohexanecarboxylic acid] | 232 nM |
| Cc1cc(Nc2cc(C(F)(F)F)ccn2)nc(-c2cn(C/C=C/c3ccccc3)nn2)c1 [Example 5.35, 4-methyl-6-{1-[(2E)-3-phenylprop-2-en-1-yl]-1H-1,2,3-triazol-4-yl}-N-[4-(trifluoromethyl)pyridin-2-yl]pyridin-2-amine] | 300 nM |
| Cc1cc(Nc2nccc(C(F)(F)F)n2)cc(-c2cn(CC(C)(O)CO)nn2)c1 (single isomer, unassigned) [Example 21.4, 2-methyl-3-[4-(3-methyl-5-{[4-(trifluoromethyl)pyrimidin-2-yl]amino}phenyl)-1H-1,2,3-triazol-1-yl]propane-1,2-diol] | 10.3 nM |
| Cc1cc(Nc2cc(OC3CCOC3)ccn2)nc(-c2cn(C(C)c3ccc(C(=O)O)cc3)nn2)c1 (centres unmarked) [Example 2.5, 4-{1-[4-(4-methyl-6-{[4-(tetrahydrofuran-3-yloxy)pyridin-2-yl]amino}pyridin-2-yl)-1H-1,2,3-triazol-1-yl]ethyl}benzoic acid] | 132 nM |
| Cc1cc(Nc2cc(C(F)(F)F)ccn2)nc(-c2cn(C/C=C/C(=O)O)nn2)c1 [Example 5.45, (2E)-4-[4-(4-methyl-6-{[4-(trifluoromethyl)pyridin-2-yl]amino}pyridin-2-yl)-1H-1,2,3-triazol-1-yl]but-2-enoic acid] | 8.3 nM |
| Cc1cc(Nc2cc(C(F)(F)F)ccn2)nc(-c2cn(C(C)C(=O)NCc3cc4ccc(F)cc4[nH]c3=O)nn2)c1 (centres unmarked) [Example 1.43, N-[(7-fluoro-2-oxo-1,2-dihydroquinolin-3-yl)methyl]-2-[4-(4-methyl-6-{[4-(trifluoromethyl)pyridin-2-yl]amino}pyridin-2-yl)-1H-1,2,3-triazol-1-yl]propanamide] | 64.2 nM |
| Cc1cc(Nc2cc(C(F)(F)F)ccn2)nc(-c2cn(CC(C)(O)CO)nn2)c1 (centres unmarked) [Example 10.16, 2-methyl-3-[4-(4-methyl-6-{[4-(trifluoromethyl)pyridin-2-yl]amino}pyridin-2-yl)-1H-1,2,3-triazol-1-yl]propane-1,2-diol] | 6.1 nM |
| COC(=O)C(C)n1cc(-c2cc(C)cc(Nc3cc(C(F)(F)F)ccn3)n2)nn1 (centres unmarked) [Example 5.20, methyl 2-[4-(4-methyl-6-{[4-(trifluoromethyl)pyridin-2-yl]amino}pyridin-2-yl)-1H-1,2,3-thiazol-1-yl]propanoate] | 24.1 nM |
| Cc1cc(Nc2cc(C(F)F)ccn2)nc(-c2cn(CC(C)(O)CO)nn2)c1 (centres unmarked) [Example 21.39, 3-(4-(6-((4-(difluoromethyl)pyridin-2-yl)amino)-4-methylpyridin-2-yl)-1H-1,2,3-triazol-1-yl)-2-methylpropane-1,2-diol] | 1.8 nM |
| Cc1cc(Nc2nccc(C(F)(F)F)n2)cc(-n2cc(CC(C)(C)C(=O)O)nn2)c1 [Example 15.13, 2,2-dimethyl-3-[1-(3-methyl-5-{[4-(trifluoromethyl)pyrimidin-2-yl]amino}phenyl)-1H-1,2,3-triazol-4-yl]propanoic acid] | 88 nM |
| Cc1cc(Nc2cc(C(F)(F)F)ccn2)nc(-c2cn(CC(O)c3ccc(C(N)=O)cc3)nn2)c1 (centres unmarked) [Example 1.10, 4-{1-hydroxy-2-[4-(4-methyl-6-{[4-(trifluoromethyl)pyridin-2-yl]amino}pyridin-2-yl)-1H-1,2,3-triazol-1-yl]ethyl}benzamide] | 6.3 nM |
| Cc1cc(Nc2cc(C(F)F)ccn2)nc(-c2cn(CC3CNC(=O)O3)nn2)c1 (single isomer, unassigned) [Example 7.13, 5-((4-(6-((4-(difluoromethyl)pyridin-2-yl)amino)-4-methylpyridin-2-yl)-1H-1,2,3-triazol-1-yl)methyl)oxazolidin-2-one] | 2 nM |
